Test results published in patent US5292669A, “Agents for the detection of substrates with hydrolase activity” (Boehringer Mannheim GmbH, priority 1992, dated 1994).

Columns and labels:
[1] = molecular target: T1, β-galactosidase labelled immune complex (Escherichia coli, UniProt P00722); assay: thyroxine (T4) test strip: colour formation from galactosidase substrate; format: biochemical; details: T4-containing sample, sodium perborate/horseradish peroxidase, after 10 minutes
Description: Fleece 14 is impregnated with a conjugate of β-galactosidase with an antibody against T4.
A piece of paper (Schleicher & Schull 3512) was activated with cyanogen bromide and T4 succinimide ester bound thereon.
d) Fleece 13 serves for the sample application.
For the production of the test carrier 11, the fleece are fixed to a base film 12 as shown in FIG. 2 of the accompanying drawings.
The sample was prepared analogously to Example 15.
The test strip 11 was placed with the end 17 in the solution. The T4-containing sample penetrates into the fleece 13. From there, it flows on into fleece 14 from where it dissolves off the β-galactosidase conjugate. […] The solution which now, besides this immune complex, also contains an excess of the β-galactosidase conjugate, penetrates into fleece 15. This excess is there bound to the paper via bound T4.
The solution which still contains the immune complex penetrates into fleece 16. The process according to the invention for the detection of the β-galactosidase labelled immune complex, which represents the substance with hydrolase activity, there takes place. The more of this complex and thus also the more of T4 was present in the solution, the more strongly has the fleece 16 become red colored after 10 minutes. In the case of the absence of T4, the fleece 16 remains white.

[2] = molecular target: T1, β-galactosidase labelled immune complex; assay: hCG test carrier: colour formation from galactosidase substrate; details: hCG-containing sample, sodium perborate/horseradish peroxidase, pH 7, within 10 minutes
[3] = test system: esterase from hog's liver; assay: spot test: hydrolysis of substrate on buffer-oxidation agent paper, visual colour evaluation; format: biochemical; set-up: key: +: coloration; ++: strong coloration; +++: strong and rapid coloration; details: potassium ferricyanide, enzyme about 1000 U/ml., ambient temperature; for Coloration pH 6: pH 6.0 fleece; for Coloration pH 9: pH 9.0 fleece
Description: (§1) In a spot test, there was investigated the hydrolysis of various compounds by appropriate hydrolases (aryl sulphatase, acidic and alkaline phosphatase, esterase, acetyl-β-O-glucosamidase and lipase). The base thereby liberated was simultaneously oxidized by potassium ferricyanide to the colored material and the color formation evaluated visually.
(§2) The rate of hydrolysis was evaluated visually at pH 6.0, as well as at pH 9.0, by spotting a hydrolase solution on to a substrate-buffer-oxidation agent-paper. The enzyme concentration was about 1000 U/ml. and the test temperature was ambient temperature. The non-enzymatic hydrolysis with a 0.9% aqueous sodium chloride solution as sample was evaluated for the purpose of comparison.
(§3) Impregnation solution: 100 mmole/liter potassium dihydrogen phosphate 10 mmole/liter potassium ferricyanide 2% Pluronic® F 68
(§4) The pH value was adjusted to 6.0 with a 2N aqueous solution of potassium hydroxide.
(§5) Impregnation solution: 100 mmole/liter glycine 10 mmole/liter potassium ferricyanide 2% Pluronic® 68
(§6) The pH value was adjusted to 9.0 with a 2N aqueous solution of sodium hydroxide.
(§7) Impregnation: An 8×30 cm. paper fleece (Whatman 3M) was impregnated with 8 ml. of impregnation solution and dried for 30 minutes at 50° C. in a drying cabinet.
(§8) The so impregnated buffer-oxidation agent papers were cut up into 8×2 cm. strips and post-impregnated with substrate solution. Substrate solution/impregnation solution: 5 mg. of the substrate to be tested (or the free base) were dissolved or suspended in 1 ml. methanol and, in each case, 10 μl. thereof applied to the buffer-oxidation agent papers. The solvent was evaporated with a blow drier. On to this substrate oxidation agent surface were then dosed on the hydrolase solutions and evaluated. […]

alkaline phosphatase = assay: as above; format: biochemical; set-up: key: +: coloration; ++: strong coloration; +++: strong and rapid coloration; details: potassium ferricyanide, enzyme about 1000 U/ml., ambient temperature; for Coloration pH 9: pH 9.0 fleece; for Coloration pH 6: pH 6.0 fleece
Description: as §1, §2, §3, §4, §5, §6, §7, §8

[4] = test system: N-acetyl-β-D-glucosaminidase; assay: as above; format: biochemical; set-up: key to Coloration pH 6 / Coloration pH 9: +: coloration; ++: strong coloration; +++: strong and rapid coloration
Description: as §1, §2, §3, §4, §5, §6, §7, §8

lipase = assay: as above; format: biochemical; set-up: key: +: coloration; ++: strong coloration; +++: strong and rapid coloration; details: potassium ferricyanide, enzyme about 1000 U/ml., ambient temperature
Description: as §1, §2, §3, §4, §5, §6, §7, §8

T1 sequence (P00722 2-1024, one chain of several): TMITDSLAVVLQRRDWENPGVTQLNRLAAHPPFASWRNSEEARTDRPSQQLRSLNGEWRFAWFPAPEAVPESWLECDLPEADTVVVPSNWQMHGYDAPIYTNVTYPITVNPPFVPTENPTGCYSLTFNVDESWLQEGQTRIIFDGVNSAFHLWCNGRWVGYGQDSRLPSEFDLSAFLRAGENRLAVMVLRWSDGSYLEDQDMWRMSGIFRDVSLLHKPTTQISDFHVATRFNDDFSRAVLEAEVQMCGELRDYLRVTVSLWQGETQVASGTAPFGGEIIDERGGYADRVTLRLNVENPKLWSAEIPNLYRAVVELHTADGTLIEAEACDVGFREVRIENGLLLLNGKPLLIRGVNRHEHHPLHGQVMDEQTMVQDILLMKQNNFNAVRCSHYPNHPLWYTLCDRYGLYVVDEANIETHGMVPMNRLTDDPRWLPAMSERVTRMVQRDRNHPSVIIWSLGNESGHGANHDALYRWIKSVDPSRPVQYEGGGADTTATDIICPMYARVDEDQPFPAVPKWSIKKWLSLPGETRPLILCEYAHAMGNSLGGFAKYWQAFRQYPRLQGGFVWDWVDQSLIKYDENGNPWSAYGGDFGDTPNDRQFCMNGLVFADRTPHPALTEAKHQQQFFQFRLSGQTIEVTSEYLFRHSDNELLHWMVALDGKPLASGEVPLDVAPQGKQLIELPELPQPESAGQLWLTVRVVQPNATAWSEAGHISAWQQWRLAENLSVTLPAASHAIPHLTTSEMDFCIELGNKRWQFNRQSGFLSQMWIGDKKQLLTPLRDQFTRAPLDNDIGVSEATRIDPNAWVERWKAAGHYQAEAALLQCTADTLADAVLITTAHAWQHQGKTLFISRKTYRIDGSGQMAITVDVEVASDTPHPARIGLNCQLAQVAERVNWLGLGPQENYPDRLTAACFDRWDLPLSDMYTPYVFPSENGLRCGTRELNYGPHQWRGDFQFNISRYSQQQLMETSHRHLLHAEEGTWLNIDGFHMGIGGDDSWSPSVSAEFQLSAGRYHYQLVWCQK

SMILES	Coloration pH 6 [3]	Coloration pH 9 [3]	Coloration pH 9 (alkaline phosphatase)	further results
COc1ccc(-c2nc(-c3ccc(O[C@@H]4O[C@H](CO)[C@H](O)[C@H](O)[C@H]4O)c(OC)c3)[nH]c2-c2ccc(OC)cc2)cc1 [Example 12, 2-(4-β-D-Galactopyranosyloxy-3-methoxyphenyl)-4,5-bis-(4-methoxyphenyl)-I,3-imidazole]				colour of fleece 16 [1]: red colored; colour formed in fleece 6 [2]: red color
COc1cc(-c2nc(-c3ccc(N(C)C)cc3)c(C)[nH]2)ccc1OC(C)=O [Example 4, 4-[4-(4-Dimethylaminophenyl)-5-methyl-1H-imidazol-2-yl]-2-methoxyphenyl acetate]	++	+++		
COc1cc(-c2nc(-c3ccc(N(C)C)cc3)c(C)[nH]2)cc(OC)c1OP(=O)(O)O [Example 6a, 4-[4-(4-Dimethylaminophenyl)-5-methyl-1H-imidazol-2-yl]-2,6-dimethoxyphenyldihydrogen phosphate]			+++	
COc1cc(-c2nc(-c3ccc(N(C)C)cc3)c(-c3ccccc3)[nH]2)cc(OC)c1OP(=O)(O)O [Example 6b, 4-[4-(4-Dimethylaminophenyl)-5-phenyl-1H-imidazol-2-yl]-2,6-dimethoxyphenyldihydrogen phosphate]			+++	Coloration pH 6 (alkaline phosphatase): ++
COc1cc(-c2nc(-c3ccc(N(C)C)cc3)c(C)[nH]2)ccc1OP(=O)(O)O [Example 6, 4-[4-(4-Dimethylaminophenyl)-5-methyl-1H-imidazol-2-yl]-2-methoxyphenyl dihydrogen phosphate]			++	
COc1cc(-c2nc(-c3ccc(N(C)C)cc3)c(C)o2)ccc1OP(=O)(O)O [Example 7, 4-[4-(4-Dimethylaminophenyl)-5-methyl-oxazol-2-yl]-2-methoxyphenyl dihydrogen phosphate]			++	Coloration pH 6 (alkaline phosphatase): +
CCCCCCCCCCCC(=O)Oc1ccc(-c2nc(-c3ccc(N(C)C)cc3)c(C)[nH]2)cc1OC [Example 5, 4-[4-(4-Dimethylaminophenyl)-5-methyl-1H-imidazol-2-yl]-2-methoxyphenyl dodecanoate]	+	++		
COc1cc(-c2nc(-c3ccc(N(C)C)cc3)c(-c3ccc(N(C)C)cc3)[nH]2)cc(OC)c1OP(=O)(O)O [Example 6c, 4-[4,5-Bis-(4-dimethylaminophenyl)-1H-imidazol-2-yl]-2,6-dimethoxyphenyl dihydrogen phosphate]			++	Coloration pH 6 (alkaline phosphatase): +
COc1cc(-c2nc(-c3ccc(N(C)C)cc3)c(C)[nH]2)ccc1O[C@@H]1O[C@H](CO)[C@@H](O)[C@H](O)[C@H]1NC(C)=O [Example 8, {4-[4-(4-Dimethylaminophenyl)-5-methyl-1H-imidazol-2-yl]-2-methoxyphenyl}-2-acetamido-2-deoxy-ε-D-glucopyranoside]				suitability as substrate (strong blue coloration) ([4]; at pH 6 and pH 9): very good substrate; Coloration pH 6 ([4]; pH 6.0 fleece, potassium ferricyanide, enzyme about 1000 U/ml., ambient temperature, visual): +++; Coloration pH 9 ([4]; pH 9.0 fleece, potassium ferricyanide, enzyme about 1000 U/ml., ambient temperature, visual): +++
CCCC(=O)Oc1ccc(-c2nc(-c3ccc(N(C)C)cc3)c(C)[nH]2)cc1OC [Example 5b, 4-[4-(4-Dimethylaminophenyl)-5-methyl-1H-imidazol-2-yl]-2-methoxyphenyl butanoate]	++	+++		Coloration pH 6 (lipase; pH 6.0 fleece): ++; Coloration pH 9 (lipase; pH 9.0 fleece): +++
COc1cc(-c2nc(-c3ccc(N(C)C)cc3)c(-c3ccc(N(C)C)cc3)o2)cc(OC)c1OP(=O)(O)O [Example 7a, 4-[4,5-Bis-(4-dimethylaminophenyl)-oxazol-2-yl]-2,6-dimethoxyphenyl dihydrogen phosphate]			+++	Coloration pH 6 (alkaline phosphatase): ++

More lines, main results first:

Coloration pH 6 [3]	Coloration pH 9 [3]	SMILES	Coloration pH 9 (alkaline phosphatase)	further results
++	+++	CCCCCCCC(=O)Oc1ccc(-c2nc(-c3ccc(N(C)C)cc3)c(C)[nH]2)cc1OC [Example 5d, 4-[4-(4-Dimethylaminophenyl)-5-methyl-1H-imidazol-2yl]-2-methoxyphenyl octanoate]		
+	++	COc1cc(-c2nc(-c3ccc(N(C)C)cc3)c(C)s2)cc(OC)c1OC(C)=O [Example 4b, 4-[4-(4-Dimethylaminophenyl)-5-methylthiazol-2-yl]-2,6-dimethoxyphenyl acetate]		
+	++	CCC(=O)Oc1ccc(-c2nc(-c3ccc(N(C)C)cc3)c(C)[nH]2)cc1OC [Example 5a, 4-[4-(4-Dimethylaminophenyl)-5-methyl-1H-imidazol-2-yl]-2-methoxyphenyl propanoate]		
+++	+++	COc1cc(-c2nc(-c3ccc(N(C)C)cc3)c(C)o2)ccc1OC(C)=O [Example 4a, 4-[4-(4-Dimethylaminophenyl)-5-methyloxazol-2-yl]-2-methoxyphenyl acetate]		
++	++	COc1cc(-c2nc(-c3ccc(N(C)C)cc3)c(-c3ccc(N(C)C)cc3)[nH]2)cc(OC)c1OC(C)=O [Example 4d, 4-[4,5-Bis-(4-dimethylaminophenyl)-1H-imidazol-2-yl]-2,6-dimethoxyphenyl acetate]		
++	++	CCCCC(=O)Oc1ccc(-c2nc(-c3ccc(N(C)C)cc3)c(C)[nH]2)cc1OC [Example 5c, 4-[4-(4-Dimethylaminophenyl)-5-methyl-1H-imidazol-2-yl]-2-methoxyphenyl pentanoate]		
